The target in test [1] is T1, CX3CR1 (Homo sapiens (Human), UniProt P49238). Description: hCX3CR1 [3H]-AZD8797 competitive binding assay (filter). Conditions: CHO-hCX3CR1 membranes, 2 nM [3H]-AZD8797. An outline of the steps:
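Filtration radioligand displacement assay: competitor titrations compete with 2 nM [3H]-AZD8797 for membranes from CHO cells expressing hCX3CR1 (9 μg/well). Incubation was 2 h at room temperature in HEPES pH 7.4 with MgCl2, CaCl2, 0.5% BSA and 1% DMSO. Filters were washed with ice-cold high-salt (500 mM NaCl) buffer, and retained radioactivity was scintillation-counted.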

Test [2] deals with T1, CX3CR1. The test can be described thus: CX3CR1-dependent cell adhesion to recombinant CX3CL1 in human whole blood under flow. Type of test: cell-based. The settings on record: recombinant full-length CX3CL1. The protocol: (§1) Adhesion of cells to recombinant full-length human CX3CL1 was monitored under physiological flow using a Cellix VenaFlux microfluidics platform with connected fluorescent microscope and camera, and using Vena8 Fluoro+ Biochips (Cellix) pre-coated with anti-His monoclonal antibody (25 μg/mL; R&D Systems) and His-tagged full-length CX3CL1 (15 μg/mL; R&D Systems).
CX3CR1-Dependent Cell Adhesion to Recombinant CX3CL1 in Human Whole Blood Under Flow
Human whole blood from healthy volunteers was collected using heparin as anti-coagulant. […] Compound stocks or DMSO vehicle were added to 0.5 or 1.0 ml aliquots of blood such that the final concentration of DMSO was 0.1%, corresponding to a 1000-fold dilution of compound stock. Blood was pre-incubated with compound at room temperature for 60 minutes with gentle shaking. DiOC6 (Invitrogen, 5 μM) or Hoechst 33342 (Invitrogen, 300 μM) dye was subsequently added to fluorescently label cells and enable their detection during the flow adhesion assay. To monitor adhesion, blood was allowed to flow through the channels of a Vena8 Fluoro+ biochip at 2.25 dynes per cm^2 for 3-6 minutes prior to capturing images for quantification. Fluorescent cells adhering to the channels were counted and the mean and/or total count across five to six images in each channel were used for calculating concentration-response curves.

Test [3] addresses T1, CX3CR1. Description: hCX3CR1 [125I]-CX3CL1 displacement binding (SPA). Conditions: CHO-hCX3CR1 membranes, [125I]-CX3CL1, SPA beads. The protocol: hCX3CR1 [^125I]-CX3CL1 Displacement Binding (SPA)
CHO-hCX3CR1 membranes (3 μg per well) together with […] [^125I]-CX3CL1 (Perkin Elmer) and different concentrations of competitor compound were incubated together with 400 μg/well WGA coated PVT SPA beads (Perkin Elmer) in 50 mM HEPES (pH 7.4), 10 mM MgCl2, 1 mM EDTA and 0.1% Gelatin in a Greiner polystyrene flat-bottom 384-well plate. The plate was incubated for 20 h at room temperature before the radioactivity was measured using a MicroBeta Trilux reader (PerkinElmer). The DMSO concentration was held constant at 1%.

Test [4] has as its target T1, CX3CR1. Description: Flow adhesion for human B-lymphocyte cell line RPMI-8226. Type of test: cell-based. The settings on record: RPMI-8226 cells under flow, recombinant full-length CX3CL1. The protocol: as §1
Flow Adhesion for Human B-Lymphocyte Cell Line RPMI-8226
Cells were cultured in RPMI 1640 medium with GlutaMAX and 20% FBS (HyClone, Perbio). Before each experiment, cells were centrifuged at 320 g and resuspended to 5×10^6 cells per ml in RPMI 1640 with 1% FBS. Cells were pre-incubated for 15 minutes at room temperature with CX3CR1 antagonist in an 8-step 3-fold dilution series starting at 3.3 μM. DMSO concentration was kept constant for all antagonist concentrations at 0.1%. Cells were pumped through the channels of the Vena8 Fluoro+ biochip at 0.5 dynes per cm2 for 3 m prior to capturing microscope images for quantification. Cells adhering to channels were counted and the mean values across five images in each channel were used for calculating the concentration-response curves.

Structures are written as SMILES.

T1 sequence (P49238 whole entry): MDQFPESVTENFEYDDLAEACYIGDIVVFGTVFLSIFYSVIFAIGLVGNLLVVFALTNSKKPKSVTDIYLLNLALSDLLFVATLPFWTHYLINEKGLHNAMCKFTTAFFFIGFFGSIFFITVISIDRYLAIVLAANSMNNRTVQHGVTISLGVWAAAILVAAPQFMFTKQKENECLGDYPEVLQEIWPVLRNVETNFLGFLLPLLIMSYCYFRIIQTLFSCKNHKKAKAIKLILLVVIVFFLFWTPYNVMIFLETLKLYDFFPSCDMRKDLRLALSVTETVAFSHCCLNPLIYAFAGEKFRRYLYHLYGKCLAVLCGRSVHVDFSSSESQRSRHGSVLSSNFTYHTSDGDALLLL

In general, IC50 refers to the concentration that gives 50% inhibition. Take `CC(C)C[C@H](CO)Nc1nc(C[C@H](C)c2ccc(Cl)cc2F)nc(NS(C)(=O)=O)n1` (single isomer, unassigned) [Example 83, N-(4-((S*)-2-(4-Chloro-2-fluorophenyl)propyl)-6-(((R)-1-hydroxy-4-methylpentan-2-yl)amino)-1,3,5-triazin-2-yl)methanesulfonamide]: the results for the IC50 at CX3CR1 [1], on CX3CR1 [2] and at CX3CR1 [3] were 156 nM, 1290 nM and 424 nM, respectively.
As to `CC(C)C[C@H](CO)Nc1nc(C[C@H](C)c2ccccc2F)nc(NS(C)(=O)=O)n1` (single isomer, unassigned) [Example 145, N-(4-((S*)-2-(2-Fluorophenyl)propyl)-6-(((R)-1-hydroxy-4-methylpentan-2-yl)amino)-1,3,5-triazin-2-yl)methanesulfonamide], the IC50 on CX3CR1 [1] came to 129 nM; on CX3CR1 [2], 543 nM; at CX3CR1 [4], 28 nM; at CX3CR1 [3], 637 nM.
As for `CC(C)C[C@H](CO)Nc1nc(C[C@H](C)c2cccc(F)c2F)nc(NS(C)(=O)=O)n1` (single isomer, unassigned) [Example 143, N-(4-((S*)-2-(2,3-Difluorophenyl)propyl)-6-(((R)-1-hydroxy-4-methylpentan-2-yl)amino)-1,3,5-triazin-2-yl)methanesulfonamide], the IC50 on CX3CR1 [1] was found to be 156 nM; at CX3CR1 [4], 522 nM; on CX3CR1 [3], 430 nM.
Consider `CC(C)C[C@H](CO)Nc1nc(C[C@@H](C)c2ccccc2)nc(NS(C)(=O)=O)n1` (single isomer, unassigned) [Example 148, N-(4-(((R)-1-Hydroxy-4-methylpentan-2-yl)amino)-6-((R*)-2-phenylpropyl)-1,3,5-triazin-2-yl)methanesulfonamide], for which the IC50 at CX3CR1 [1] was 37 nM; on CX3CR1 [2], 326 nM; at CX3CR1 [4], 37 nM; on CX3CR1 [3] it was 484 nM.
Regarding `CC(C)C[C@H](CO)Nc1nc(C[C@@H](C)c2ccccc2F)nc(NS(C)(=O)=O)n1` (single isomer, unassigned) [Example 146, N-(4-((R*)-2-(2-Fluorophenyl)propyl)-6-(((R)-1-hydroxy-4-methylpentan-2-yl)amino)-1,3,5-triazin-2-yl)methanesulfonamide], the IC50 was found to be 23 nM at CX3CR1 [1], 233 nM at CX3CR1 [2], 11 nM at CX3CR1 [4] and 180 nM on CX3CR1 [3].
On to `CC(C)C[C@H](CO)Nc1nc(C[C@@H](C)c2ccc(Cl)cn2)nc(NS(C)(=O)=O)n1` (single isomer, unassigned) [Example 150, N-(4-((R*)-2-(5-Chloropyridin-2-yl)propyl)-6-(((R)-1-hydroxy-4-methylpentan-2-yl)amino)-1,3,5-triazin-2-yl)methanesulfonamide], for which the IC50 was 185 nM at CX3CR1 [1], 1600 nM at CX3CR1 [2] and 1530 nM at CX3CR1 [3].
On to `CC(C)C[C@H](CO)Nc1nc(C[C@@H](C)c2cnc(C3CC3)nc2)nc(NS(C)(=O)=O)n1` (single isomer, unassigned) [Example 12, N-(4-((R*)-2-(2-Cyclopropylpyrimidin-5-yl)propyl)-6-(((R)-1-hydroxy-4-methylpentan-2-yl)amino)-1,3,5-triazin-2-yl)methanesulfonamide], for which the IC50 was 176 nM on CX3CR1 [1], 255 nM on CX3CR1 [4] and 1860 nM on CX3CR1 [3].
As for `CC(C)C[C@H](CO)Nc1nc(C[C@@H](C)c2ccc(F)cc2F)nc(NS(C)(=O)=O)n1` (single isomer, unassigned) [Example 6, N-(4-((R*)-2-(2,4-Difluorophenyl)propyl)-6-(((R)-1-hydroxy-4-methylpentan-2-yl)amino)-1,3,5-triazin-2-yl)methanesulfonamide], the IC50 worked out at 96 nM on CX3CR1 [1], 109 nM on CX3CR1 [2] and 948 nM on CX3CR1 [3].
For `CC(C)C[C@H](CO)Nc1nc(C[C@@H](C)c2cccc(Cl)c2F)nc(NS(C)(=O)=O)n1` (single isomer, unassigned) [Example 4, N-(4-((R*)-2-(3-Chloro-2-fluorophenyl)propyl)-6-(((R)-1-hydroxy-4-methylpentan-2-yl)amino)-1,3,5-triazin-2-yl)methanesulfonamide], in that order: 17 nM, 499 nM and 68 nM.
`CC(C)C[C@H](CO)Nc1nc(C[C@@H](C)c2ccc(F)cc2)nc(NS(C)(=O)=O)n1` (single isomer, unassigned) [Example 79, N-(4-((R*)-2-(4-Fluorophenyl)propyl)-6-(((R)-1-hydroxy-4-methylpentan-2-yl)amino)-1,3,5-triazin-2-yl)methanesulfonamide]: the values for the IC50 on CX3CR1 [1], at CX3CR1 [4] and on CX3CR1 [3] were 198 nM, 54 nM and 2470 nM, respectively.
Regarding `COc1ccc([C@@H](C)Cc2nc(N[C@@H](CO)CC(C)C)nc(NS(C)(=O)=O)n2)cn1` (single isomer, unassigned) [Example 75, N-(4-(((R)-1-Hydroxy-4-methylpentan-2-yl)amino)-6-((S*)-2-(6-methoxypyridin-3-yl)propyl)-1,3,5-triazin-2-yl)methanesulfonamide], the IC50 was 2700 nM at CX3CR1 [1], above 3000 nM at CX3CR1 [4] and 5180 nM on CX3CR1 [3].
Regarding `CC(C)C[C@H](CO)Nc1nc(C[C@H](C)c2ccc(Cl)cn2)nc(NS(C)(=O)=O)n1` (single isomer, unassigned) [Example 149, N-(4-((S*)-2-(5-Chloropyridin-2-yl)propyl)-6-(((R)-1-hydroxy-4-methylpentan-2-yl)amino)-1,3,5-triazin-2-yl)methanesulfonamide], the IC50 on CX3CR1 [2] and at CX3CR1 [3] was above 30000 nM in each case.
As to `COc1ccc([C@@H](C)Cc2nc(N[C@@H](CO)CC(C)C)nc(NS(C)(=O)=O)n2)c(F)c1` (single isomer, unassigned) [Example 82, N-(4-((S*)-2-(2-Fluoro-4-methoxyphenyl)propyl)-6-(((R)-1-hydroxy-4-methylpentan-2-yl)amino)-1,3,5-triazin-2-yl)methanesulfonamide], the IC50 at CX3CR1 [1] was 128 nM; on CX3CR1 [4] it was 11 nM; at CX3CR1 [3], 566 nM.
Regarding `CC(C)C[C@H](CO)Nc1nc(C[C@@H](C)c2ccc(F)c(F)c2F)nc(NS(C)(=O)=O)n1` (single isomer, unassigned) [Example 88, N-(4-(((R)-1-Hydroxy-4-methylpentan-2-yl)amino)-6-((R*)-2-(2,3,4-trifluorophenyl)propyl)-1,3,5-triazin-2-yl)methanesulfonamide], the figures for the IC50 at CX3CR1 [1] and at CX3CR1 [2] were 32 nM and 115 nM, respectively.
As to `COc1ccc([C@H](C)Cc2nc(N[C@@H](CO)CC(C)C)nc(NS(C)(=O)=O)n2)c(F)c1` (single isomer, unassigned) [Example 81, N-(4-((R*)-2-(2-Fluoro-4-methoxyphenyl)propyl)-6-(((R)-1-hydroxy-4-methylpentan-2-yl)amino)-1,3,5-triazin-2-yl)methanesulfonamide], the IC50 on CX3CR1 [1] came to 49 nM; on CX3CR1 [2], 3080 nM; on CX3CR1 [4] it was 14 nM; on CX3CR1 [3] it was 470 nM.
`COc1ccc([C@H](C)Cc2nc(N[C@@H](CO)CC(C)C)nc(NS(C)(=O)=O)n2)cn1` (single isomer, unassigned) [Example 76, N-(4-(((R)-1-Hydroxy-4-methylpentan-2-yl)amino)-6-((R*)-2-(6-methoxypyridin-3-yl)propyl)-1,3,5-triazin-2-yl)methanesulfonamide]: the IC50 came to 48 nM at CX3CR1 [1], 158 nM at CX3CR1 [4] and 886 nM on CX3CR1 [3].
